Experimental data published in patent publication US12552834B2, “Selective MENA binding peptides” (MASSACHUSETTS INSTITUTE OF TECHNOLOGY, priority 2021, dated 2026).
pKd: −log10 of the molar value. Entries after “also recorded” stand apart in the source; their conditions may differ. Where no end group is shown, it is not given here.

Legend:
ENAH EVH1 domain [1] = molecular target: T1, ENAH EVH1 domain (Homo sapiens, UniProt Q8N8S7); assay: Biolayer interferometry (BLI), SUMO-peptide fusions binding monomeric ENAH EVH1 domain WT
T1 construct: places a 6×-His and TEV cleavage tag N-terminal to the EVH1 domain; 6×-His + TEV cleavage site (N, cleaved yes); made in house; host or cells: E. coli Rosetta2(DE3)
Description: All BLI experiments were performed with 2 replicates on an Octet Red96 instrument (ForteBio). […] The loaded tips were immersed in a solution of ENAH EVH1 domain at a relevant dilution series in BLI buffer at an orbital shake speed of 1000 rpm and run until the binding signal plateaued. ENAH-bound tips were subsequently placed into BLI buffer only for dissociation and run until the binding signal plateaued. KD values were obtained through steady state analysis. […] The association phases were then fit to a one-phase binding model in Prism and the equilibrium steady-state binding signal values from that fit were plotted against ENAH concentration and fit to a single-site specific binding model in Prism to obtain dissociation constants. Errors reported are the standard deviation of two replicates.
Monomeric ENAH, EVL, or VASP EVH1 domains for use in BLI and ITC experiments, or ENAH EVH1-peptide fusions for crystallography was cloned into a pMCSG7 vector (gift from Frank Gertler, MIT), which places a 6×-His and TEV cleavage tag N-terminal to the EVH1 domain. These constructs were transformed into Rosetta2(DE3) cells and grown in 2×YT media supplemented with 100 μg/mL ampicillin. Cells were grown while shaking at 37° C. to an O.D. 600 of 0.5-0.7, and then cooled on ice for at least 20 minutes. They were then induced with 0.5 mM IPTG and grown while shaking at 18° C. overnight. Induced cultures were resuspended in 25 mL of wash buffer (20 mM Hepes pH 7.6, 500 mM NaCl, 20 mM imidazole) and frozen at −80° C. overnight. The next day, cultures were sonicated, spun down, and applied to Ni-NTA acid agarose resin equilibrated with wash buffer, and washed as described above. Samples were eluted in 10 mL elution buffer (20 mM Hepes pH 7.6, 500 mM NaCl, […]). TEV protease was added to the elution at a ratio of 1 mg TEV:50 mg tagged protein along with 1 mM DTT. This mixture was dialyzed against TEV cleavage buffer (50 mM Hepes pH 8.0, 300 mM NaCl, 5 mM DTT, 1 mM EDTA) at 4° C. overnight and then applied over Ni-NTA acid agarose resin equilibrated with wash buffer. The column was washed with 2×8 mL of wash buffer, and the resulting flow-through and washes were pooled, concentrated, and applied to an S75 26/60 column equilibrated in gel filtration buffer (20 mM Hepes pH 7.6, 150 mM NaCl, 1 mM DTT, 1% glycerol). Purity was verified by SDS-PAGE and combined fractions were concentrated and flash frozen at −80° C.
Rosetta2(DE3) cells (Novagen) were transformed with pDW363 vector encoding 6×-His-SUMO-peptide fusions and grown in 20 mL of LB+100 μg/mL Ampicillin+0.050 mM D-(+)-Biotin dissolved in DMSO for in vivo biotinylation. Cells were grown to an OD of 0.5-0.7 with 1 mM IPTG and induced for 4-6 hours at 37° C. Pellets were spun down and frozen and −80° C. for at least 2 hours. These pellets were then thawed and resuspended in B-PER reagent (ThermoFisher) at 4 mL/gram of pellet with 0.2 mM PMSF. This suspension was shaken at 25° C. for 10-15 minutes, and then spun down at 15,000 g for 10 minutes. The supernatant was applied to 250 μL of Ni-NTA acid agarose resin equilibrated in 20 mM Tris pH 8.0, 500 mM NaCl, 20 mM Imidazole (Buffer A), and then washed 3 times with 1 mL of this buffer. Peptides were eluted in 1.8 mL of 20 mM Tris pH 8.0, 500 mM NaCl, 300 mM imidazole to use in BLI assays.

ENAH EVH1 domain [2] = molecular target: T1, ENAH EVH1 domain; assay: Isothermal titration calorimetry (ITC), SUMO-peptide titrated into ENAH EVH1 domain; assay type: binding; settings: 25° C.
Description: ITC experiments were performed with two replicates using a VP-ITC microcalorimeter (MicroCal LLC). To prepare samples for ITC, 2.5 mL of 100 μM ENAH EVH1 domain and 1 mL of 800 μM-1.2 mM of SUMO-peptide fusions were dialyzed against 2 μL of ITC Buffer (20 mM Hepes pH 7.6, 150 mM NaCl, 1 mM TCEP) at 4° C. overnight. The concentrations of proteins were remeasured after dialysis on the day of experiment. SUMO-peptide was titrated into ENAH EVH1 domain at 25° C. Data analysis and curve fitting were performed with the Origin 7.0 software (OriginLab). Errors reported as the standard deviation of two replicates.
SUMO-peptide fusions were cloned into a pDW363 vector that appends a BAP and 6×-His tag to the N-terminus of the protein and transformed into Rosetta2(DE3) cells. For ITC experiments, these cells were expressed in TB supplemented with 100 μg/mL ampicillin, grown to an O.D. 600 of 0.5-0.7, and induced with 1 mM IPTG. Induced cultures were purified as described above for the pMCGS7 constructs, with the exception of the TEV cleavage step. Instead, after elution with elution buffer, the sample was directly applied to the S75 26/60 column equilibrated in gel filtration buffer. Fractions were pooled, concentrated, and flash frozen at −80° C.

T1 sequence (Q8N8S7 with tags, fused parts or gaps): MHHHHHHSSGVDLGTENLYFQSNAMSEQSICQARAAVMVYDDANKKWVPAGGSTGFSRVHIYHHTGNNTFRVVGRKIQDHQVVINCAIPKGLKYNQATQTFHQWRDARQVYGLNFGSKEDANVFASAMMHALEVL

| Molecule | ITC binding model (ENAH EVH1 domain [2]) | ITC thermodynamic driving force of binding (ENAH EVH1 domain [2]) | binding to monomeric ENAH EVH1 domain by BLI, in words (ENAH EVH1 domain [1]) | also measured |
| --- | --- | --- | --- | --- |
| CC[C@H](C)[C@H](NC(=O)[C@H](CO)NC(=O)[C@@H]1CCCN1C(=O)[C@H](CC(C)C)NC(=O)[C@H](C)NC(=O)[C@H](CO)NC(=O)[C@H](CO)NC(=O)[C@H](CC(=O)O)NC(=O)[C@H](CC(=O)O)NC(=O)[C@H](CC(C)C)NC(=O)[C@@H]1CCCN1C(=O)[C@@H]1CCCN1C(=O)[C@@H]1CCCN1C(=O)[C@@H]1CCCN1C(=O)[C@@H]1CCCN1C(=O)[C@@H]1CCCN1C(=O)[C@H](CC(C)C)NC(=O)[C@H](Cc1ccccc1)NC(=O)[C@H](CC(=O)O)NC(=O)CNC(=O)[C@H](CCC(=O)O)NC(=O)CNC(=O)CNC(=O)[C@@H]1CCCN1C(=O)[C@H](CCC(N)=O)NC(=O)[C@@H](N)CCCCN)C(=O)N[C@@H](CO)C(=O)NCC(=O)N[C@@H](CC(N)=O)C(=O)N[C@@H](Cc1ccccc1)C(=O)N1CCC[C@H]1C(=O)N1CCC[C@H]1C(=O)N1CCC[C@H]1C(=O)N1CCC[C@H]1C(=O)N1CCC[C@H]1C(=O)N[C@@H](CC(C)C)C(=O)O [LPP] | fit well to a 1:1 binding model | enthalpically driven | – | reduction in affinity (ENAH EVH1 domain [1]; sequence between the two motifs replaced with a Gly-Ser linker): ~4 fold |
| ADRSPFLPPPPPVTDCSQGSPLPHSPVFPPPPPEAL-OH [NHSL1] | fit well to a 1:1 binding model | enthalpically driven | – | – |
| GSTQDVQSSPHNQFTFRPLPPPPPPPHACTCARKPP [TENM1] | – | – | – | pKd (ENAH EVH1 domain [1]; BLI, ENAH EVH1 domain): < 4.22 |
| ILSGLPAPDFIDYPERQECNCRPQESPYVSGMKTCH [TRIM1, CXC-motif peptide from E3 ubiquitin ligase TRIM1] | – | – | did not saturate; also recorded: bound weakly and reversibly | – |
| PPAPEEQDLSMADFPPPEEAFFSVASPEPAGPSGSP [KIAAA1522] | – | – | mid-micromolar affinity | – |
